# Tests used:
# Assay in all cases: relative viability (nuclei count vs DMSO), 5 days (fraction); higher = more cells survive
# LU99A = tested on: LU99A
# In short: (§1)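 Five library-drug doses in √10 steps were combined with a fixed anchor-drug dose, or a single drug was given alone, by pin tool to lung cancer cell lines in 1536-well plates the day after seeding. Nuclei were stained and counted after 5 days. Relative viability is the nuclei count in treated wells over that in vehicle wells, taken as the median of duplicate plates.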
# NCI-H1792 = tested on: NCI-H1792
# In short: as §1
# NCI-H1651 = tested on: NCI-H1651
# In short: as §1
# HCC-44 = tested on: HCC-44
# In short: as §1
# NCI-H1666 = tested on: NCI-H1666
# In short: as §1
# NCI-H1755 = tested on: NCI-H1755
# In short: as §1
# NCI-H1650 = tested on: NCI-H1650
# In short: as §1
# BEN = tested on: BEN
# In short: as §1
# NCI-H2087 = tested on: NCI-H2087
# In short: as §1
# PC-14 = tested on: PC-14
# In short: as §1
# SK-MES-1 = tested on: SK-MES-1
# In short: as §1
# NCI-H1993 = tested on: NCI-H1993
# In short: as §1
# COR-L23 = tested on: COR-L23
# In short: as §1
# NCI-H520 = tested on: NCI-H520
# In short: as §1
# NCI-H1355 = tested on: NCI-H1355
# In short: as §1
# NCI-H1437 = tested on: NCI-H1437
# In short: as §1
# NCI-H460 = tested on: NCI-H460
# In short: as §1
# LXF-289 = tested on: LXF-289
# In short: as §1
# NCI-H2170 = tested on: NCI-H2170
# In short: as §1
# NCI-H1563 = tested on: NCI-H1563
# In short: as §1
# CAL-12T = tested on: CAL-12T
# In short: as §1
# NCI-H2085 = tested on: NCI-H2085
# In short: as §1
compound,measurement,setting,value
Nc1cccc2c1CN(C1CCC(=O)NC1=O)C2=O (configuration not stated) [Lenalidomide] + CS(=O)(=O)CCNCc1ccc(-c2ccc3ncnc(Nc4ccc(OCc5cccc(F)c5)c(Cl)c4)c3c2)o1 [Lapatinib] (partner 2 µM),relative viability,LU99A; first compound 0.253 µM,0.922
same,relative viability,LU99A; first compound 0.8 µM,0.919
same,relative viability,LU99A; first compound 2.53 µM,0.894
same,relative viability,LU99A; first compound 8 µM,0.56
same,relative viability,NCI-H1792; first compound 0.253 µM,0.946
same,relative viability,NCI-H1792; first compound 0.8 µM,0.729
same,relative viability,NCI-H1792; first compound 2.53 µM,1.03
same,relative viability,NCI-H1792; first compound 8 µM,0.666
same,relative viability,NCI-H1651; first compound 0.253 µM,0.825
same,relative viability,NCI-H1651; first compound 0.8 µM,0.867
same,relative viability,NCI-H1651; first compound 2.53 µM,1.25
same,relative viability,NCI-H1651; first compound 8 µM,0.88
same,relative viability,HCC-44; first compound 0.253 µM,0.997
same,relative viability,HCC-44; first compound 0.8 µM,0.799
same,relative viability,HCC-44; first compound 2.53 µM,1.05
same,relative viability,HCC-44; first compound 8 µM,0.924
same,relative viability,NCI-H1666; first compound 0.253 µM,0.788
same,relative viability,NCI-H1666; first compound 0.8 µM,0.295
same,relative viability,NCI-H1666; first compound 2.53 µM,0.847
same,relative viability,NCI-H1666; first compound 8 µM,0.513
same,relative viability,NCI-H1755; first compound 0.253 µM,1.02
same,relative viability,NCI-H1755; first compound 0.8 µM,1
same,relative viability,NCI-H1755; first compound 2.53 µM,1.04
same,relative viability,NCI-H1755; first compound 8 µM,0.916
same,relative viability,NCI-H1650; first compound 0.253 µM,0.75
same,relative viability,NCI-H1650; first compound 0.8 µM,0.485
same,relative viability,NCI-H1650; first compound 2.53 µM,0.835
same,relative viability,NCI-H1650; first compound 8 µM,0.731
same,relative viability,BEN; first compound 0.253 µM,0.898
same,relative viability,BEN; first compound 0.8 µM,0.587
same,relative viability,BEN; first compound 2.53 µM,0.918
same,relative viability,BEN; first compound 8 µM,0.489
same,relative viability,NCI-H2087; first compound 0.253 µM,1.01
same,relative viability,NCI-H2087; first compound 0.8 µM,0.78
same,relative viability,NCI-H2087; first compound 2.53 µM,1.07
same,relative viability,NCI-H2087; first compound 8 µM,1.09
same,relative viability,PC-14; first compound 0.253 µM,0.294
same,relative viability,PC-14; first compound 0.8 µM,0.32
same,relative viability,PC-14; first compound 2.53 µM,0.4
same,relative viability,PC-14; first compound 8 µM,0.302
same,relative viability,SK-MES-1; first compound 0.253 µM,0.416
same,relative viability,SK-MES-1; first compound 0.8 µM,0.397
same,relative viability,SK-MES-1; first compound 2.53 µM,0.536
same,relative viability,SK-MES-1; first compound 8 µM,0.391
same,relative viability,NCI-H1993; first compound 0.253 µM,0.894
same,relative viability,NCI-H1993; first compound 0.8 µM,0.831
same,relative viability,NCI-H1993; first compound 2.53 µM,0.821
same,relative viability,NCI-H1993; first compound 8 µM,0.722
same,relative viability,COR-L23; first compound 0.253 µM,1.05
same,relative viability,COR-L23; first compound 0.8 µM,0.935
same,relative viability,COR-L23; first compound 2.53 µM,1.29
same,relative viability,COR-L23; first compound 8 µM,1.2
same,relative viability,NCI-H520; first compound 0.253 µM,0.82
same,relative viability,NCI-H520; first compound 0.8 µM,0.929
same,relative viability,NCI-H520; first compound 2.53 µM,1.11
same,relative viability,NCI-H520; first compound 8 µM,0.637
same,relative viability,NCI-H1355; first compound 0.253 µM,1
same,relative viability,NCI-H1355; first compound 0.8 µM,0.623
same,relative viability,NCI-H1355; first compound 2.53 µM,0.963
same,relative viability,NCI-H1355; first compound 8 µM,0.606
same,relative viability,NCI-H1437; first compound 0.253 µM,0.692
same,relative viability,NCI-H1437; first compound 0.8 µM,0.758
same,relative viability,NCI-H1437; first compound 2.53 µM,1.11
same,relative viability,NCI-H1437; first compound 8 µM,0.914
same,relative viability,NCI-H460; first compound 0.253 µM,0.981
same,relative viability,NCI-H460; first compound 0.8 µM,1.14
same,relative viability,NCI-H460; first compound 2.53 µM,1.66
same,relative viability,NCI-H460; first compound 8 µM,1.01
same,relative viability,LXF-289; first compound 0.253 µM,0.928
same,relative viability,LXF-289; first compound 0.8 µM,0.882
same,relative viability,LXF-289; first compound 2.53 µM,0.991
same,relative viability,LXF-289; first compound 8 µM,0.957
same,relative viability,NCI-H2170; first compound 0.253 µM,0.26
same,relative viability,NCI-H2170; first compound 0.8 µM,0.293
same,relative viability,NCI-H2170; first compound 2.53 µM,0.296
same,relative viability,NCI-H2170; first compound 8 µM,0.247
same,relative viability,NCI-H1563; first compound 0.253 µM,0.919
same,relative viability,NCI-H1563; first compound 0.8 µM,0.852
same,relative viability,NCI-H1563; first compound 2.53 µM,0.979
same,relative viability,NCI-H1563; first compound 8 µM,0.763
same,relative viability,CAL-12T; first compound 0.253 µM,0.602
same,relative viability,CAL-12T; first compound 2.53 µM,0.801
same,relative viability,CAL-12T; first compound 8 µM,0.403
same,relative viability,NCI-H2085; first compound 0.253 µM,0.731
same,relative viability,NCI-H2085; first compound 0.8 µM,0.538
same,relative viability,NCI-H2085; first compound 2.53 µM,0.912
same,relative viability,NCI-H2085; first compound 8 µM,0.477

# Reference: the supplement of paper PMC10307832
